# Reference: US7625583B2, “Dietary lipids for improving skin and coat of pets” (Nestec S.A., priority 2000, dated 2009)
# Columns and labels:
# Malassezia pachydermatis = assay: Colorimetric AlamarBlue microtiterplate MIC determination of fatty acids; assay type: cell-based; details: one M. pachydermatis strain, 4-5 days at 30° C.
# Source text: (§1) A colorimetric method for quantitative measurement of the susceptibility of Staphylococcus aureus, Staphylococcus intermedius and Malassezia pachydermatis strains to fatty acids was developed. This method is based on the assays described by Hogan, J. S., et al, 1987, J. Dairy, Sci., 70, 927-934 and Tiballi, R. N., et al., 1995, J. Clin. Microbiol., 33 (4), 915-917.
# (§2) The microorganisms used in this study were Staphylococcus aureus FSM 51, 52, 84 (food isolates), ATCC 6538, Staphylococcus intermedius BCCM™/LMG 9079, 13351 and Malassezia pachidermatis ATCC 14522. Staphylococcus strains were grown in Lab-Lemco broth (LL broth, Oxoid CM 15) for 18-20 h at 30° C. and Malassezia was cultivated for 5 days at 30° C. in liquid Dixon medium (30 g Malt extract, 20 g Oxbile, 15 g Agar, 5 g Mycological peptone, 2.5 g Glycerol mono-oleate, 10 ml Tween™ 40, pH=5.4±0.2). After washing in saline (Oxoid, BR53), cell pellets were resuspended in LL broth supplemented with 0.15% agar (w/v).
# (§3) Minimal inhibitory concentrations (MICs) of palmitoleic, lauric and oleic acids (NU-CHECK-PREP, Inc, DK, U-40-A, N-12-A, U-46-A respectively) were investigated in a microtiterplate assay using an oxidation-reduction dye, AlamarBlue™ (Interchim, Fr), as an indicator of growth. Each plate was set up with each of the test microorganisms as follows: one column, 110 μl of sterile LL broth supplemented with 0.15% agar (negative control), one column, 100 μl of sterile LL broth supplemented with 0.15% agar plus 10 μl of test microorganism (positive control), other columns, 100 μl of serial two fold dilutions of the test fatty acids (diluted in LL broth supplemented with 0.15% agar) plus 10 μl of microorganism (final concentration of 10^3-10^4 cell/ml). Plates were incubated at 30° C. in ambient air and examined at 24 h and 4-5 days for Staphylococcus strains and Malassezia respectively. After incubation period, 25 μl of AlamarBlue™ solution (¼ diluted with 10 mM Phosphate Buffered Saline 0.05% Tween 20, Sigma P3563) were added to each well. After a second incubation of 2 h (Staphylococcus) and 1 day (Malassezia) at 30° C., endpoints were determined visually by observing a color change from blue (no growth) to pink (growth). MIC was defined as the lowest fatty acid concentration showing no growth (any color change).
# [1] = test system: Staphylococcus intermedius; assay: as above; assay type: cell-based; details: two S. intermedius strains, 24 h at 30° C.
# Source text: as §1, §2, §3
# Staphylococcus aureus = assay: as above; assay type: cell-based; details: four S. aureus strains, 24 h at 30° C.
# Source text: as §1, §2, §3
# [2] = test system: Pneumococci, Streptococcus, Corynebacteria, Micrococci, Candida, Staphylococcus aureus; details: several skin pathogens; cited from earlier work
# [3] = human trial, 600 mg/day for 24 weeks; cited from earlier work
Compound,MIC range (Malassezia pachydermatis),MIC range [1],MIC range (Staphylococcus aureus),Inhibition of skin pathogens in vitro (in words) [2],Improvement of hand dermatitis (in words) [3]
CCCCC/C=C\C/C=C\CCCCCCCC(=O)O [linoleic acid],,,,inhibitory,
CCCCC/C=C\C/C=C\C/C=C\CCCCC(=O)O [γ-linolenic acid],,,,,did not improve hand dermatitis significantly

# Further lines, with some results ahead:
MIC range (Malassezia pachydermatis),MIC range [1],MIC range (Staphylococcus aureus),Compound,Inhibition of skin pathogens in vitro (in words) [2],Improvement of hand dermatitis (in words) [3]
<200 µg/mL,<200 to 800 µg/mL,<200 to 400 µg/mL,"CCCCCCCCCCCC(=O)O [Lauric, lauric acid]",inhibitory,
>25000 µg/mL,>25000 µg/mL,>25000 µg/mL,"CCCCCCCC/C=C\CCCCCCCC(=O)O [Oleic, oleic acid]",,
,20 to 100 µg/mL,20 µg/mL,"CCCCCC/C=C\CCCCCCCC(=O)O [Palmitoleic, palmitoleic acid]",inhibitory,
